≈ marks a conversion by molar mass, not a printed value.
Tests used:
Format in all cases: functional
[1] = tested on: Penicillium; experiment: Antimicrobial activity against Penicillium wild strain assessed as diameter of growth inhibition zone at 250 ug/ml after 48-96 hr by agar cup diffusion method; conditions: read-out: DIZ
[2] = tested on: Penicillium; experiment: Antimicrobial activity against Penicillium wild strain assessed as diameter of growth inhibition zone at 100 ug/ml after 48-96 hr by agar cup diffusion method; conditions: read-out: DIZ
[3] = tested on: Trichophyton rubrum; experiment: Antimicrobial activity against Trichophyton rubrum MTCC 296 assessed as diameter of growth inhibition zone at 100 ug/ml after 48-96 hr by agar cup diffusion method; conditions: read-out: DIZ
[4] = tested on: Aspergillus clavatus; experiment: Antimicrobial activity against Aspergillus clavatus MTCC 1323 assessed as diameter of growth inhibition zone at 100 ug/ml after 48-96 hr by agar cup diffusion method; conditions: read-out: DIZ
[5] = tested on: Candida albicans; experiment: Antimicrobial activity against Candida albicans MTCC 227 assessed as diameter of growth inhibition zone at 100 ug/ml after 48-96 hr by agar cup diffusion method; conditions: read-out: DIZ
[6] = tested on: Penicillium; experiment: Antimicrobial activity against Penicillium wild strain assessed as diameter of growth inhibition zone at 50 ug/ml after 48-96 hr by agar cup diffusion method; conditions: read-out: DIZ
[7] = tested on: Trichophyton rubrum; experiment: Antimicrobial activity against Trichophyton rubrum MTCC 296 assessed as diameter of growth inhibition zone at 50 ug/ml after 48-96 hr by agar cup diffusion method; conditions: read-out: DIZ
[8] = tested on: Aspergillus clavatus; experiment: Antimicrobial activity against Aspergillus clavatus MTCC 1323 assessed as diameter of growth inhibition zone at 50 ug/ml after 48-96 hr by agar cup diffusion method; conditions: read-out: DIZ
[9] = tested on: Candida albicans; experiment: Antimicrobial activity against Candida albicans MTCC 227 assessed as diameter of growth inhibition zone at 50 ug/ml after 48-96 hr by agar cup diffusion method; conditions: read-out: DIZ
[10] = tested on: Penicillium; experiment: Antimicrobial activity against Penicillium wild strain assessed as diameter of growth inhibition zone at 25 ug/ml after 48-96 hr by agar cup diffusion method; conditions: read-out: DIZ
[11] = tested on: Trichophyton rubrum; experiment: Antimicrobial activity against Trichophyton rubrum MTCC 296 assessed as diameter of growth inhibition zone at 25 ug/ml after 48-96 hr by agar cup diffusion method; conditions: read-out: DIZ
[12] = tested on: Aspergillus clavatus; experiment: Antimicrobial activity against Aspergillus clavatus MTCC 1323 assessed as diameter of growth inhibition zone at 25 ug/ml after 48-96 hr by agar cup diffusion method; conditions: read-out: DIZ
[13] = tested on: Candida albicans; experiment: Antimicrobial activity against Candida albicans MTCC 227 assessed as diameter of growth inhibition zone at 25 ug/ml after 48-96 hr by agar cup diffusion method; conditions: read-out: DIZ
[14] = tested on: Penicillium; experiment: Antimicrobial activity against Penicillium wild strain by agar cup diffusion method
[15] = tested on: Aspergillus clavatus; experiment: Antimicrobial activity against Aspergillus clavatus MTCC 1323 by agar cup diffusion method
[16] = tested on: Pseudomonas aeruginosa; experiment: Antimicrobial activity against Pseudomonas aeruginosa MTCC 1688 assessed as diameter of growth inhibition zone at 25 ug/ml after 18-24 hr by agar cup diffusion method; conditions: read-out: DIZ
[17] = tested on: Escherichia coli; experiment: Antimicrobial activity against Escherichia coli MTCC 443 assessed as diameter of growth inhibition zone at 25 ug/ml after 18-24 hr by agar cup diffusion method; conditions: read-out: DIZ
[18] = tested on: Staphylococcus aureus; experiment: Antimicrobial activity against Staphylococcus aureus MTCC 96 assessed as diameter of growth inhibition zone at 25 ug/ml after 18-24 hr by agar cup diffusion method; conditions: read-out: DIZ
[19] = tested on: Streptococcus pyogenes; experiment: Antimicrobial activity against Streptococcus pyogenes MTCC 442 assessed as diameter of growth inhibition zone at 25 ug/ml after 18-24 hr by agar cup diffusion method; conditions: read-out: DIZ
[20] = tested on: Klebsiella pneumoniae; experiment: Antimicrobial activity against Klebsiella pneumoniae MTCC 109 by agar cup diffusion method
[21] = tested on: Escherichia coli; experiment: Antimicrobial activity against Escherichia coli MTCC 443 by agar cup diffusion method
[22] = tested on: Pseudomonas aeruginosa; experiment: Antimicrobial activity against Pseudomonas aeruginosa MTCC 1688 by agar cup diffusion method
[23] = tested on: Staphylococcus aureus; experiment: Antimicrobial activity against Staphylococcus aureus MTCC 96 by agar cup diffusion method
[24] = tested on: Streptococcus pyogenes; experiment: Antimicrobial activity against Streptococcus pyogenes MTCC 442 by agar cup diffusion method
[25] = tested on: Trichophyton rubrum; experiment: Antimicrobial activity against Trichophyton rubrum MTCC 296 by agar cup diffusion method
[26] = tested on: Candida albicans; experiment: Antimicrobial activity against Candida albicans MTCC 227 by agar cup diffusion method
[27] = tested on: Klebsiella pneumoniae; experiment: Antimicrobial activity against Klebsiella pneumoniae MTCC 109 assessed as diameter of growth inhibition zone at 250 ug/ml after 18-24 hr by agar cup diffusion method; conditions: read-out: DIZ
[28] = tested on: Pseudomonas aeruginosa; experiment: Antimicrobial activity against Pseudomonas aeruginosa MTCC 1688 assessed as diameter of growth inhibition zone at 250 ug/ml after 18-24 hr by agar cup diffusion method; conditions: read-out: DIZ
[29] = tested on: Escherichia coli; experiment: Antimicrobial activity against Escherichia coli MTCC 443 assessed as diameter of growth inhibition zone at 250 ug/ml after 18-24 hr by agar cup diffusion method; conditions: read-out: DIZ
[30] = tested on: Staphylococcus aureus; experiment: Antimicrobial activity against Staphylococcus aureus MTCC 96 assessed as diameter of growth inhibition zone at 250 ug/ml after 18-24 hr by agar cup diffusion method; conditions: read-out: DIZ
[31] = tested on: Streptococcus pyogenes; experiment: Antimicrobial activity against Streptococcus pyogenes MTCC 442 assessed as diameter of growth inhibition zone at 250 ug/ml after 18-24 hr by agar cup diffusion method; conditions: read-out: DIZ
[32] = tested on: Klebsiella pneumoniae; experiment: Antimicrobial activity against Klebsiella pneumoniae MTCC 109 assessed as diameter of growth inhibition zone at 100 ug/ml after 18-24 hr by agar cup diffusion method; conditions: read-out: DIZ
[33] = tested on: Pseudomonas aeruginosa; experiment: Antimicrobial activity against Pseudomonas aeruginosa MTCC 1688 assessed as diameter of growth inhibition zone at 100 ug/ml after 18-24 hr by agar cup diffusion method; conditions: read-out: DIZ
[34] = tested on: Escherichia coli; experiment: Antimicrobial activity against Escherichia coli MTCC 443 assessed as diameter of growth inhibition zone at 100 ug/ml after 18-24 hr by agar cup diffusion method; conditions: read-out: DIZ
[35] = tested on: Staphylococcus aureus; experiment: Antimicrobial activity against Staphylococcus aureus MTCC 96 assessed as diameter of growth inhibition zone at 100 ug/ml after 18-24 hr by agar cup diffusion method; conditions: read-out: DIZ
[36] = tested on: Streptococcus pyogenes; experiment: Antimicrobial activity against Streptococcus pyogenes MTCC 442 assessed as diameter of growth inhibition zone at 100 ug/ml after 18-24 hr by agar cup diffusion method; conditions: read-out: DIZ
[37] = tested on: Klebsiella pneumoniae; experiment: Antimicrobial activity against Klebsiella pneumoniae MTCC 109 assessed as diameter of growth inhibition zone at 50 ug/ml after 18-24 hr by agar cup diffusion method; conditions: read-out: DIZ
[38] = tested on: Pseudomonas aeruginosa; experiment: Antimicrobial activity against Pseudomonas aeruginosa MTCC 1688 assessed as diameter of growth inhibition zone at 50 ug/ml after 18-24 hr by agar cup diffusion method; conditions: read-out: DIZ
[39] = tested on: Escherichia coli; experiment: Antimicrobial activity against Escherichia coli MTCC 443 assessed as diameter of growth inhibition zone at 50 ug/ml after 18-24 hr by agar cup diffusion method; conditions: read-out: DIZ
[40] = tested on: Staphylococcus aureus; experiment: Antimicrobial activity against Staphylococcus aureus MTCC 96 assessed as diameter of growth inhibition zone at 50 ug/ml after 18-24 hr by agar cup diffusion method; conditions: read-out: DIZ
[41] = tested on: Streptococcus pyogenes; experiment: Antimicrobial activity against Streptococcus pyogenes MTCC 442 assessed as diameter of growth inhibition zone at 50 ug/ml after 18-24 hr by agar cup diffusion method; conditions: read-out: DIZ
[42] = tested on: Klebsiella pneumoniae; experiment: Antimicrobial activity against Klebsiella pneumoniae MTCC 109 assessed as diameter of growth inhibition zone at 25 ug/ml after 18-24 hr by agar cup diffusion method; conditions: read-out: DIZ
[43] = tested on: Trichophyton rubrum; experiment: Antimicrobial activity against Trichophyton rubrum MTCC 296 assessed as diameter of growth inhibition zone at 250 ug/ml after 48-96 hr by agar cup diffusion method; conditions: read-out: DIZ
[44] = tested on: Aspergillus clavatus; experiment: Antimicrobial activity against Aspergillus clavatus MTCC 1323 assessed as diameter of growth inhibition zone at 250 ug/ml after 48-96 hr by agar cup diffusion method; conditions: read-out: DIZ
[45] = tested on: Candida albicans; experiment: Antimicrobial activity against Candida albicans MTCC 227 assessed as diameter of growth inhibition zone at 250 ug/ml after 48-96 hr by agar cup diffusion method; conditions: read-out: DIZ

## O=C(/C=C/c1ccc(Cl)cc1)C1C(=O)NC(=S)NC1=O
[1]
  zone of inhibition at 250 µg/mL: 25 mm
[2]
  zone of inhibition at 100 µg/mL: 23 mm
[3]
  zone of inhibition at 100 µg/mL: 21 mm
[4]
  zone of inhibition at 100 µg/mL: 22 mm
[5]
  zone of inhibition at 100 µg/mL: 22 mm
[6]
  zone of inhibition at 50 µg/mL: 22 mm
[7]
  zone of inhibition at 50 µg/mL: 20 mm
[8]
  zone of inhibition at 50 µg/mL: 20 mm
[9]
  zone of inhibition at 50 µg/mL: 21 mm
[10]
  zone of inhibition at 25 µg/mL: 19 mm
[11]
  zone of inhibition at 25 µg/mL: 18 mm
[12]
  zone of inhibition at 25 µg/mL: 18 mm
[13]
  zone of inhibition at 25 µg/mL: 20 mm
[14]
  MFC: > 1000 µg/mL
  MIC: > 1000 µg/mL
[15]
  MFC: 500 µg/mL (≈ 1620 µM)
  MIC: 500 µg/mL (≈ 1620 µM)
[16]
  zone of inhibition at 25 µg/mL: 11 mm
[17]
  zone of inhibition at 25 µg/mL: 11 mm
[18]
  zone of inhibition at 25 µg/mL: 11 mm
[19]
  zone of inhibition at 25 µg/mL: 11 mm
[20]
  MBC: 125 µg/mL (≈ 405 µM)
  MIC: 100 µg/mL (≈ 324 µM)
[21]
  MBC: 125 µg/mL (≈ 405 µM)
  MIC: 125 µg/mL (≈ 405 µM)
[22]
  MBC: 250 µg/mL (≈ 810 µM)
  MIC: 200 µg/mL (≈ 648 µM)
[23]
  MBC: 100 µg/mL (≈ 324 µM)
  MIC: 100 µg/mL (≈ 324 µM)
[24]
  MBC: 125 µg/mL (≈ 405 µM)
  MIC: 100 µg/mL (≈ 324 µM)
[25]
  MFC: > 1000 µg/mL
  MIC: > 1000 µg/mL
[26]
  MFC: 500 µg/mL (≈ 1620 µM)
  MIC: 500 µg/mL (≈ 1620 µM)
[27]
  zone of inhibition at 250 µg/mL: 20 mm
[28]
  zone of inhibition at 250 µg/mL: 15 mm
[29]
  zone of inhibition at 250 µg/mL: 19 mm
[30]
  zone of inhibition at 250 µg/mL: 15 mm
[31]
  zone of inhibition at 250 µg/mL: 19 mm
[32]
  zone of inhibition at 100 µg/mL: 17 mm
[33]
  zone of inhibition at 100 µg/mL: 13 mm
[34]
  zone of inhibition at 100 µg/mL: 17 mm
[35]
  zone of inhibition at 100 µg/mL: 13 mm
[36]
  zone of inhibition at 100 µg/mL: 17 mm
[37]
  zone of inhibition at 50 µg/mL: 15 mm
[38]
  zone of inhibition at 50 µg/mL: 12 mm
[39]
  zone of inhibition at 50 µg/mL: 14 mm
[40]
  zone of inhibition at 50 µg/mL: 12 mm
[41]
  zone of inhibition at 50 µg/mL: 14 mm
[42]
  zone of inhibition at 25 µg/mL: 13 mm
[43]
  zone of inhibition at 250 µg/mL: 22 mm
[44]
  zone of inhibition at 250 µg/mL: 22 mm
[45]
  zone of inhibition at 250 µg/mL: 23 mm
